Reference: article PMC11806654, “In Vitro Discovery of a Therapeutic Lead for HFMD From a Library Screen of Rocaglates/Aglains” (Journal of Medical Virology, 2025)
“Also recorded” adds a separate entry of the source. Like-named read-outs stand apart in the source and are kept apart here.

Tests used:
[1] = tested on: NSC-34 cells; assay: alamarBlue cytotoxicity screen; conditions: screen, 10 µM
[2] = tested on: EV-A71; assay: High-throughput immunofluorescence antiviral screen in NSC-34 cells; assay type: cell-based, human enterovirus A71; conditions: for log reduction at 10 µM: Enterovirus A
[3] = tested on: SARS-CoV-2; set-up: method as in PMID 39117283; conditions: cited from earlier work
[4] = tested on: NF-κB; conditions: read-out: NF-κB inhibition IC50; cited from earlier work
[5] = tested on: A549; set-up: method as in PMID 11170675; conditions: A549 cell line; cited from earlier work
[6] = tested on: P-388; set-up: method as in PMID 11170675; conditions: P-388 cell line; cited from earlier work
[7] = tested on: EV-A71; assay: Co-treatment assay in SH-SY5Y cells; conditions: compound present during infection
Experimental: (§5) The assays were performed in SH‐SY5Y cells in triplicates and resulting virus titres were quantified via plaque assays as previously described [27].
(§6) (A) Time‐of‐addition (TOA) and time‐of‐removal (TOR) of compound 13 (8 μM) at specific time points across the EV‐A71 replication cycle in SH‐SY5Y cells. For TOA, virus‐containing media was aspirated and replaced with compound 13 (8 μM) at 0, 2, 4, 6, 8, 10, 12 or 18 h postinfection (h.p.i.). […] At 24 h.p.i., supernatant from each treatment and control group was collected for virus quantification via plaque assay. Separately, SH‐SY5Y cells were infected with EV‐A71 (MOI 1) and treated with specific concentrations of compound 13 according to previously published experimental schemes for (B) pre‐treatment, (C) co‐treatment and (D) entry‐bypass assays [27]. At 24 h.p.i., supernatant was collected and used for virus yield measurement via plaque assay. Every assay was performed in triplicates with error bars representing standard deviation from the mean of triplicates. 0.1% DMSO served as the mock control group of respective assays.
(§7) In the pre‐treatment set‐up, host cells were first treated with the compound before virus challenge. […] Conversely, in the co‐treatment assay extracellular virions were treated with the compound before infecting the cells. […]

[8] = tested on: EV-A71; assay: Plaque-assay antiviral validation in NSC-34 cells; assay type: cell-based, human enterovirus A71; conditions: for Maximum viral titre reduction observed in dose response (Log): EV-A71 MOI 1, plaque assay; for EC50: Enterovirus A, EVA71, EV-A71 MOI 1, plaque assay
Experimental: (§1) The complete cytotoxicity profiles of selected rocaglate/aglain derivatives against NSC‐34 or SH‐SY5Y cells were determined via the alamarBlue assay. Treated cells were incubated with the compounds for 12 h (NSC‐34) or 24 h (SH‐SY5Y). Negative and vehicle controls of this assay involved cells treated with fresh reduced serum DMEM and 0.1% DMSO, respectively. Cell viability in each treatment group was determined based on the intensity of colorimetric changes of each treatment group. […] Following incubation, infected cells were rinsed with sterile 1X PBS to remove any unbound virus particles. Specific concentrations of respective compounds were added to the cells in triplicates and incubated for 12 h (NSC‐34) or 24 h (SH‐SY5Y). At the end of the incubation period, two cycles of freeze‐thaws (−80°C; 37°C) were performed on the plates before collection of supernatants from each treatment or control group for virus titre measurement via plaque assay, as described.
(§2) (A) NSC‐34 cells were treated with various concentrations of respective compounds, in the presence or absence of EV‐A71 (MOI 1) infection. Resulting cell viability and virus yield from respective experimental setups were determined via alamarBlue and plaque assays, respectively. […] For (B), (C) and (D), virus titres were represented in bars and shown on the left‐hand y‐axis, whereas cell viabilities were presented in lines and illustrated on the right‐hand y‐axis.
(§3) Figure S1. Validation of cytotoxicity and antiviral profiles of compound 13 in NSC-34 cells. NSC-34 cells were treated with specific concentrations of compound 13 in the presence or absence of EV-A71 (MOI 1) infection. Resulting cell viability and virus yield from respective experimental setups were determined via alamarBlue^TM and plaque assays, respectively.

[9] = tested on: EV-A71; assay: Plaque-assay antiviral dose response in RD cells; assay type: cell-based, human enterovirus A71; conditions: Enterovirus A, EVA71
Experimental: as §1
(§4) (A) NSC‐34 cells were treated with various concentrations of respective compounds, in the presence or absence of EV‐A71 (MOI 1) infection. Resulting cell viability and virus yield from respective experimental setups were determined via alamarBlue and plaque assays, respectively. […]

[10] = tested on: positive- and negative-sense RNA of EV-A71; assay: qRT-PCR strand-specific viral RNA quantification; assay type: cell-based, human enterovirus A71; conditions: 6 and 8 µM, 12 and 24 h.p.i., SH-SY5Y cells
[11] = tested on: replication-competent EV-A71 replicon; assay: Nano-luciferase replicon assay, replication-competent; conditions: SH-SY5Y cells, 24 h
Experimental: (§8) Using DharmaFECT 1 transfection reagent (Dharmacon), SH‐SY5Y cells seeded in 96‐well plates were transfected with either our established replication‐competent or replication‐defective EV‐A71 replicon construct [27, 29] and incubated for 4 h. At the end of incubation, the transfected cells were washed with sterile 1X PBS and treated with 0.1% DMSO or respective concentrations of test compound or positive controls. Guanidine hydrochloride (GuHCl) was used as positive control for the replication‐competent replicon, and cycloheximide (CHX) was used as positive control for the replication‐defective replicon. After 24 h, luciferase signal detection was subsequently performed using the Nano‐Glo kit (Promega, Madison, WI, USA) with a GLOMAX Multi‐Detection System microplate reader (Promega, Madison, WI, USA).
(§9) Guanidine hydrochloride (GuHCl), an eukaryotic RNA transcription inhibitor [38], and cycloheximide (CHX), an inhibitor of the elongation phase during RNA translation [39], were used as positive controls of respective assays. 0.1% DMSO served as the mock control group of respective assays. Luminescence readings generated by SH‐SY5Y cells transfected with either the established replication‐competent or replication‐defective replicons [27] were measured using a microplate reader and normalized against the DMSO control. […]

[12] = alamarBlue cytotoxicity dose response, HBMECs; assay type: cell-based; conditions: human, primary human brain microvascular endothelial cells (HBMECs)
Experimental: (§10) Evaluation of cytotoxicity and antiviral profiles of compound 13 in primary human brain microvascular endothelial cells (HBMECs). HBMECs were treated with specific concentrations of compound 13, in the presence or absence of EV-A71 (MOI 1) infection. Resulting cell viability and virus yield from respective experimental setups were determined via alamarBlue^TM and plaque assays, respectively.

[13] = alamarBlue cytotoxicity dose response, NSC-34; conditions: mouse
Experimental: as §1, §2, §3

[14] = tested on: CV-A16; assay: Pan-enterovirus plaque assay in SH-SY5Y cells, CV-A16; assay type: cell-based, Coxsackievirus A16
Experimental: as §1, §4

[15] = tested on: EV-A71; assay: Plaque-assay antiviral dose response in primary HBMECs; assay type: cell-based, human enterovirus A71; conditions: Enterovirus A, EVA71
Experimental: as §10

[16] = tested on: EV-A71; assay: Time-of-addition / time-of-removal assay in SH-SY5Y cells; assay type: cell-based, human enterovirus A71; conditions: 8 μM
[17] = tested on: replication-defective EV-A71 replicon; assay: Nano-luciferase replicon assay, replication-defective; conditions: SH-SY5Y cells, 24 h
Experimental: as §8, §9

[18] = tested on: EV-A71 VP2; assay: Immunoblotting of viral protein; conditions: SH-SY5Y cells, versus vehicle control
Experimental: Cells from specific treatment and control groups were lysed with lysis buffer containing 1X Laemmli buffer. The resulting cell lysates were heated for 10 min at 95°C and subjected to SDS‐PAGE run in 10% acrylamide gels at 100 V for 2 h. The proteins were then transferred to a polyvinylidene fluoride membrane using the Trans‐Blot Turbo system (Bio‐Rad). Following a 20 min membrane blocking using 2% bovine serum albumin (BSA) dissolved in Tris‐buffered saline‐Tween 20 (TBST), specific viral protein and host loading controls were probed using the mouse antibodies targeting EV‐A71 VP2 (MAB979) and host β‐actin, respectively. After 1 h incubation with constant rocking at room temperature, the membranes were subjected to three rounds of washes using TBST before incubation at room temperature with horseradish peroxidase (HRP) conjugated goat anti‐mouse IgG secondary antibody (Thermo Fisher Scientific) for 1 h. Following three rounds of membrane washing with TBST, specific protein bands were developed using the Immobilon Western Chemiluminescent HRP substrate (Merck Millipore) for 3 min. […]
Lysates of EV‐A71 (MOI 1)‐infected SH‐SY5Y cells treated with specific concentrations of compound 13 were used for (A) qRT‐PCR‐based viral strand‐specific RNA quantification or (B) immunoblotting measurement of specific protein levels. […]

[19] = in vitro; conditions: mouse
[20] = alamarBlue cytotoxicity dose response, SH-SY5Y; assay type: cell-based; conditions: human, SH-SY5Y cells
Experimental: as §1, §4

[21] = tested on: EV-A71; assay: Plaque-assay antiviral dose response in SH-SY5Y cells; assay type: cell-based, human enterovirus A71
Experimental: as §1, §4

[22] = alamarBlue cytotoxicity dose response, RD; assay type: cell-based; conditions: human, RD cells
[23] = tested on: CV-A6; assay: Pan-enterovirus plaque assay in SH-SY5Y cells, CV-A6; assay type: cell-based
Experimental: as §1, §4

[24] = tested on: EV-A71; assay: Entry-bypass assay (viral RNA transfection) in SH-SY5Y cells; assay type: cell-based, human enterovirus A71
Experimental: Having excluded the virus attachment and entry steps, we deemed it likely that aglain 13 targets the early post‐entry stages of EV‐A71 life cycle involving the initial virus uncoating, viral RNA genome replication or protein production. As packaging and secretion of newly synthesized EV‐A71 virions from infected cells generally begin after 6 h.p.i., compound 13 is unlikely to interfere with the later phases of the virus life cycle (Figure 6A). The ability of compound 13 to interfere with EV‐A71 post‐entry events was further corroborated via our entry‐bypass assay wherein host cells were first transfected with in vitro isolated viral RNA before compound treatment (Figure 6D). […] As compound 13 targets the intracellular replication steps of EV‐A71, its effects on two primary pre‐packaging stages of the virus life cycle, namely viral RNA replication and protein production, were evaluated.

[25] = tested on: EV-A71; assay: Pre-treatment assay in SH-SY5Y cells; conditions: cells exposed to compound before infection
Experimental: as §5, §6, §7

[26] = alamarBlue cytotoxicity screen; conditions: mouse, NSC-34 cells
[27] = tested on: NSC-34 cells; assay: in vitro
Experimental: as §1, §2, §3

[28] = EVA71, screen, 10 µM, NSC-34 cells, EV-A71 MOI 1, 12 h, read-out: EV-A71 inhibition (logs), reduction in viral titre
[29] = EVA71, NSC-34, 12 h, read-out: EV-A71 inhibition (logs), reduction in viral titre, screen, 10 µM, NSC-34 cells, EV-A71 MOI 1, 12 h

CONC(=O)C1C(O)C2(O)c3c(OC)cc(OC)cc3OC2(c2ccc(OC)cc2)C1c1ccccc1 (stereo not shown) [Compound 3, CR‐1‐31b, reference compound]
host cell cytotoxicity in screen [1]: unacceptably toxic; also recorded: high level of host cell cytotoxicity
log reduction at 10 µM [2, 28]: > 2
antiviral activity in screen ([2]; screen, 10 µM, NSC-34 cells): appreciable antiviral activity

COc1ccc(C23Oc4cc(OC)cc(OC)c4C24NC(C)=NC4(O)C(C(=O)N(C)OC)C3c2ccccc2)cc1 (stereo not shown) [Compound 4]
host cell cytotoxicity in screen [1]: unacceptably toxic; also recorded: high level of host cell cytotoxicity
log reduction at 10 µM [2, 29]: > 2
antiviral activity in screen ([2]; screen, 10 µM, NSC-34 cells): appreciable antiviral activity
inhibition of SARS-CoV-2 replication [3]: inhibition of SARS‐CoV‐2 replication

COC(=O)C1C(O)C2(O)c3c(OC)cc(OC)cc3OC2(c2ccc(OC)cc2)C1c1ccccc1 (stereo not shown) [Compound 6, reference compound]
log reduction at 10 µM [2, 28]: > 2
antiviral activity in screen ([2]; screen, 10 µM, NSC-34 cells): appreciable antiviral activity

COc1ccc(C23Oc4cc(OC)cc(OC)c4C(O)(C(C(=O)N4CCCC4OC)C2c2ccccc2)C3O)cc1 (stereo not shown) [Compound 8, (‐)‐ponapensin]
IC50 [4]: 0.06 µM

CC=C(C)C(=O)NC1CCCN1C(=O)C1C(c2ccccc2)C2(c3ccc(OC)cc3)Oc3cc(OC)cc(OC)c3C1(O)C2O (stereo not shown) [Compound 9, (‐)‐elliptifoline]
cytotoxic activity ED50 [5]: 18.9 µg/mL
cytotoxic activity ED50 [6]: 3.4 µg/mL

COc1ccc(C23Oc4cc(OC)cc(OC)c4C(O)(C(c4c(F)c(F)c(F)c(F)c4F)C2c2ccccc2)C3O)cc1 (stereo not shown) [Compound 13]
inhibition of EV-A71 replication, co-treatment [7]: ineffective inhibition; also recorded: no significant inhibition
downregulation of virus titer ([8]; 15 µM): approximately 2 logs
selectivity index (SI = CC50/EC50) ([8]; EV-A71): 6.1
Maximum viral titre reduction observed in dose response (Log) [8]: 2.53 Log
EC50 [8]: 3.57 µM
EC50 [9]: 0.43 µM
positive- and negative-sense RNA of EV-A71 [10]: significant decrease
luciferase signal, replication-competent replicon [11]: significantly decreased
Cell Viability (%) ([1]; 12 h): 91%
CC50 [12]: 89.4 µM
CC50 at 12 h [13]: 21.8 µM
log reduction at 10 µM [2, 29]: 2.3
infectious CV-A16 titers ([14]; 6 and 8 µM, SH-SY5Y cells): significantly reduced
EC50 ([14]; Enterovirus A, CVA16, CV-A16 in SH-SY5Y cells): 0.8 µM
EC50 [15]: 32.8 µM
time of addition at which EV-A71 yields were suppressed ([16]; TOA): < 6 h.p.i.
viral load on time-of-removal ([16]; TOR, every time point up to 18 h.p.i.): continuous reduction in the viral load
luciferase signal, replication-defective replicon [17]: significantly decreased
downregulation of viral protein expression levels (VP2) [18]: > 50%
viability at 10 µM ([19]; Cell Viability (%), screen, 10 µM, NSC-34 cells, 12 h): > 90%
CC50 at 24 h [20]: 11 µM
downregulation of virus titer ([21]; 8 µM, SH-SY5Y cells): approximately 2 logs
EC50 ([21]; Enterovirus A, EVA71, EV-A71 in SH-SY5Y cells): 5.43 µM
CC50 [22]: 11.2 µM
infectious CV-A6 titers ([23]; 6 and 8 µM, SH-SY5Y cells): significantly reduced
EC50 ([23]; Enterovirus A, CVA6, CV-A6 in SH-SY5Y cells): 0.51 µM
suppression of virus yields, entry-bypass ([24]; 6 µM): 0.88 logs
suppression of virus yields, entry-bypass ([24]; 8 µM): 2.27 logs
inhibition of EV-A71 replication, pre-treatment [25]: ineffective inhibition; also recorded: no significant inhibition

COc1ccc(C23Oc4cc(OC)cc(OC)c4C(O)(C2=O)C(c2ccccc2)C3c2ccccc2)cc1 (stereo not shown) [Compound 14]
Maximum viral titre reduction observed in dose response (Log) [8]: 0.82 Log
EC50 [8]: 18.9 µM
viability at 12 h, 10 µM [26]: 106%
CC50 at 12 h ([13]; NSC-34 cells): 42.6 µM
log reduction at 10 µM ([2]; EVA71, NSC-34, 12 h, screen, 10 µM, NSC-34 cells, EV-A71 MOI 1, 12 h, read-out: EV-A71 inhibition (logs), reduction in viral titre): ~1
EV-A71 inhibition (logs), reduction in viral titre ([2]; screen, 10 µM, NSC-34 cells, EV-A71 MOI 1, 12 h): 1.0 logs

COC(=O)C1C(c2ccccc2)C2(c3ccc(Br)cc3)C(=O)C1(O)c1c(OC)cc(OC)cc1N2C (stereo not shown) [Compound 15]
Maximum viral titre reduction observed in dose response (Log) [8]: 0.74 Log
EC50 [8]: 5.27 µM
CC50 at 12 h [13]: > 50 µM
log reduction at 10 µM [2, 29]: 1.2
viability at 12 h, 10 µM [19]: 91%

COC(=O)C1C(c2ccccc2)C2(c3ccc(Br)cc3)C(O)C1(O)c1c(OC)cc(OC)cc1N2C (stereo not shown) [Compound 16]
Maximum viral titre reduction observed in dose response (Log) [8]: 0.89 Log
EC50 [8]: 44.2 µM
CC50 at 12 h [13]: > 50 µM
log reduction at 10 µM [2, 29]: 1.4
antiviral activity in screen ([2]; screen, 10 µM, NSC-34 cells): showed antiviral activity
viability at 12 h, 10 µM [19]: 81%

COC(=O)C1C(c2ccccc2)C2(c3ccc(OC)cc3)Oc3cc(OC)cc(OC)c3C1(O)C2O (stereo not shown) [Compound 17]
host cell cytotoxicity in screen [1]: non‐cytotoxic
log reduction at 10 µM [2, 29]: 0.1
antiviral activity in screen ([2]; screen, 10 µM, NSC-34 cells): no measurable antiviral activity
viability at 12 h, 10 µM [19]: 108%

COC(=O)C1C(c2ccccc2)C2(c3ccc(Br)cc3)Oc3cc(OC)cc(OC)c3C1(O)C2=O (stereo not shown) [Compound 18]
host cell cytotoxicity in dose response [27]: significant degree of cytotoxicity
CC50 at 12 h [13]: 13.1 µM
